According to patent publication US7858349B2, “Anti-cancer compounds” (The Regents of the University of Colorado, priority 1999, dated 2010):
Where two headings read alike, the source gives them in different places.

Columns and labels:
SCLC strain SHP-77 = test: MTT assay for cell survival, SCLC SHP-77 in vitro; type: cell-based, human; details: ED50 for killing of SCLC strain SHP-77 in vitro, 4 days, 0 = no detectable activity
PC3 PC cells = test: Inhibition of PC3 tumor growth in vivo in nude mice; design: species or system athymic nude mice; key to PC3 In vivo % inhib.: an IC50 value of “0” represents no detectable anti-cancer activity for a drug in a given cell line; “Stim.” indicates the observation of a stimulatory activity on the growth of the cancer cell line; details: percent inhibition of tumor growth in nude mice; prostate cancer; i.p. 5 mg/kg/every second day or 10 mg/kg/every fourth day
Procedure: Compounds having high in vitro cytotoxic activity were tested against implanted tumors in vivo. Athymic nude mice were implanted subcutaneously with suspensions (2 million SHP-77 SCLC cells, 1 million A549 NSCLC cells or 1.5 million PC3 PC cells) in Matrigel suspension. On the eighth day after tumor implantation groups of 5 mice bearing implants were injected intraperitoneally with the compounds being tested at 5 mg/kg/every second day or at 10 mg/kg/every fourth day; control animals were injected with an equal volume of isotonic saline. Less soluble compounds were initially dissolved in dimethyl sulfoxide (DMSO) and diluted with medium. In those cases the control injections contained the same concentration of DMSO. Tumor size was measured with a caliper three times per week. Tumor volume was calculated by the formula: Volume(cc)=3.14×(length)×(width)^2/6 At autopsy tumors were removed and weighed. Tumor inhibition was calculated on both weight and measurement basis. In each Table, an IC50 value of “0” represents no detectable anti-cancer activity for a drug in a given cell line and “Stim.” indicates the observation of a stimulatory activity on the growth of the cancer cell line.

| Structure (SMILES) | IC50 (SCLC strain SHP-77; read-out: SCLC SHP-77 IC50) [µM] | PC3 In vivo % inhib. (PC3 PC cells) | IC50 (SCLC strain SHP-77; read-out: SHP-77 In vitro IC50) [µM] |
| --- | --- | --- | --- |
| CC1(C)CC(NC(=O)C(Cc2ccc(OCc3c(Cl)cccc3Cl)cc2)NC(=O)C2=CN3CCC2CC3)CC(C)(C)N1 (stereo not shown) [Analog M-1396, Dhq-OC2Y-Atmp] | 15 | 9% | – |
| CC1(C)CC(NC(=O)C(Cc2ccc(OCc3c(Cl)cccc3Cl)cc2)NC(=O)C#Cc2ccccc2)CC(C)(C)N1 (stereo not shown) [Analog M-1398, Ppr-OC2Y-Atmp] | 8 | 65% | – |
| CC1(C)CC(NC(=O)C(Cc2ccc(OCc3c(Cl)cccc3Cl)cc2)NC(=O)C(=Cc2ccccc2)c2ccccc2)CC(C)(C)N1 (stereo not shown) [Analog M-1400, Pcn-OC2Y-Atmp] | 1.3 | Stim. | – |
| CC1(C)CC(NC(=O)C(Cc2ccc(OCc3c(Cl)cccc3Cl)cc2)NC(=O)C2C(C)(C)C2(C)C)CC(C)(C)N1 (stereo not shown) [Analog M-1406, Tmcc-OC2Y-Atmp] | 5.3 | 25% | – |
| COc1cc(C(=O)NC(Cc2ccc(OCc3c(Cl)cccc3Cl)cc2)C(=O)NC2CC(C)(C)NC(C)(C)C2)cc(OC)c1OC (stereo not shown) [Analog M-1408, 3,4,5Tmb-OC2Y-Atmp] | 8 | Stim. | – |
| CCCCCC=CC(=O)NC(Cc1ccc(OCc2c(Cl)cccc2Cl)cc1)C(=O)NC1CC(C)(C)NC(C)(C)C1 (stereo not shown) [Analog M-1412, 2Octe-OC2Y-Atmp] | 12 | 38% | – |
| CC1(C)CC(NC(=O)C(Cc2ccc(OCc3c(Cl)cccc3Cl)cc2)NC(=O)C=Cc2ccc3c(c2)OCO3)CC(C)(C)N1 (stereo not shown) [Analog M-1414, 34Mdc-OC2Y-Atmp] | 7.1 | Stim. | – |
| CC1(C)CC(NC(=O)C(Cc2ccc(OCc3c(Cl)cccc3Cl)cc2)NC(=O)C=Cc2cccs2)CC(C)(C)N1 (stereo not shown) [Analog M-1418, Thia-OC2Y-Atmp] | 8.6 | 9% | – |
| CC1(C)CC(NC(=O)C(Cc2ccc(OCc3c(Cl)cccc3Cl)cc2)NC(=O)c2c(F)c(N)cc(F)c2F)CC(C)(C)N1 (stereo not shown) [Analog M-1420, Atfb-OC2Y-Atmp] | 12 | Stim. | – |
| CC1(C)CC(NC(=O)C(Cc2ccc(OCc3c(Cl)cccc3Cl)cc2)NC(=O)C2(c3ccc(Cl)cc3)CC2)CC(C)(C)N1 (stereo not shown) [Analog M-1422, Cpcpc-OC2Y-Atmp] | 13 | 31% | – |
| O=C(/C=C/c1c(F)c(F)c(F)c(F)c1F)N[C@@H](Cc1ccc(OCc2c(Cl)cccc2Cl)cc1)C(=O)N1CCN(c2cccc(Cl)c2Cl)CC1 [Analog M-1578, F5c-OC2Y-Dcpp] | – | Stim. | – |
| Cc1ccccc1C=CC(=O)NC(Cc1ccc(OCc2c(Cl)cccc2Cl)cc1)C(=O)NC1CC(C)(C)NC(C)(C)C1 (stereo not shown) [Analog M-1778, Mca-OC2Y-Atmp] | 1.5 | – | – |
| CC1(C)CC(NC(=O)C(Cc2ccc(OCc3c(Cl)cccc3Cl)cc2)NC(=O)CC=Cc2ccccc2)CC(C)(C)N1 (stereo not shown) [Analog M-1780, Saa-OC2Y-Atmp] | 1.8 | – | – |
| CC1(C)CC(NC(=O)C(Cc2ccc(OCc3c(Cl)cccc3Cl)cc2)NC(=O)Cc2ccc(-c3ccccc3)cc2)CC(C)(C)N1 (stereo not shown) [Analog M-1782, Bipa-OC2Y-Atmp] | 3 | – | – |
| CC1(C)CC(NC(=O)C(Cc2ccc(F)cc2)NC(=O)C(=Cc2ccccc2)c2ccccc2)CC(C)(C)N1 (stereo not shown) [Analog M-1788, Pcn-PFF-Atmp] | 2.3 | – | – |
| CC1(C)CC(NC(=O)C(Cc2ccc(C(F)(F)F)cc2)NC(=O)C(=Cc2ccccc2)c2ccccc2)CC(C)(C)N1 (stereo not shown) [Analog M-1790, Pcn-F3MF-Atmp] | 2.2 | – | – |
| CC1(C)CC(NC(=O)C(Cc2ccc(-c3ccccc3)cc2)NC(=O)Cc2ccc(-c3ccccc3)cc2)CC(C)(C)N1 (stereo not shown) [Analog M-1796, Bipa-Bip-Atmp] | 1.5 | – | – |
| CC(C)CC(NC(=O)OCC1c2ccccc2-c2ccccc21)C(=O)NC1CC(C)(C)NC(C)(C)C1 (stereo not shown) [Analog M-1798, Fmoc-Leu-Atmp] | 7.6 | – | – |
| CC1(C)CC(NC(=O)C(Cc2ccc(OCc3c(Cl)cccc3Cl)cc2)NC(=O)OCC2c3ccccc3-c3ccccc32)CC(C)(C)N1 (stereo not shown) [Analog M-1800, Fmoc-OC2Y-Atmp] | 1.7 | – | – |
| CC1(C)CC(NC(=O)C(Cc2ccc(OCc3c(Cl)cccc3Cl)cc2)NC(=O)C(F)(F)C(F)(F)C(F)(F)C(=O)O)CC(C)(C)N1 (stereo not shown) [M-1098 #1, CHFB-OC2Y-Atmp] | – | – | > 60 |
| CC1(C)CC(NC(=O)C(Cc2ccc(OCc3c(Cl)cccc3Cl)cc2)NC(=O)C(F)(F)C(F)(F)C(F)(F)C(=O)O)CC(C)(C)N1 (stereo not shown) [M-1098 #2, CHFB-OC2Y-Atmp] | – | – | 6.8 |
